# Test results reported in ChEMBL document CHEMBL1129209, “Molecular interactions of all possible regioisomers of synthetic myo-inositol phosphates with inositol 1,4,5-trisphosphate 3-kinase” (Bioorg Med Chem Lett, 1997).
# Assay: Inhibition of Inositol 1,4,5-trisphosphate 3-kinase (IP3K) from rat brain
row,IC50 [µM],SMILES
1,42.1,O=P(O)(O)O[C@H]1[C@H](O)[C@@H](OP(=O)(O)O)[C@H](OP(=O)(O)O)[C@@H](OP(=O)(O)O)[C@H]1O (stereo in doubt; form 1)
2,3.55,"O=P(O)(O)O[C@@H]1[C@H](O)[C@H](O)[C@@H](OP(=O)(O)O)[C@H](OP(=O)(O)O)[C@H]1O (stereo in doubt; form 1) [INS(1,4,5)P3]"
3,56.7,O=P(O)(O)O[C@H]1[C@H](O)[C@@H](OP(=O)(O)O)[C@H](OP(=O)(O)O)[C@@H](OP(=O)(O)O)[C@H]1O (stereo in doubt; form 2)
4,12.4,"O=P(O)(O)O[C@@H]1[C@H](O)[C@H](O)[C@@H](OP(=O)(O)O)[C@H](OP(=O)(O)O)[C@H]1O (stereo in doubt; form 2) [INS(1,4,5)P3]"
5,220,O=P(O)(O)O[C@H]1[C@H](O)[C@@H](OP(=O)(O)O)[C@H](OP(=O)(O)O)[C@@H](OP(=O)(O)O)[C@H]1O (stereo in doubt; form 3)
6,65.2,O=P(O)(O)O[C@H]1[C@H](O)[C@@H](OP(=O)(O)O)[C@H](OP(=O)(O)O)[C@@H](OP(=O)(O)O)[C@H]1O (stereo in doubt; form 4)
